# pIC50: −log10 of the molar value. Where a name gives a salt, the structure may show the parent alone.
# Biological target: T1, rh beta tryptase (Homo sapiens, UniProt Q15661)
# T1 construct: purchased Promega
# Assay: tryptase inhibition in vitro test (cleavage of N-p-tosyl-Gly-Pro-Lys-para-nitroaniline, p-nitroaniline measured at 405 nm)
# Type: biochemical
# Conditions: rh beta tryptase 0.91 U/ml, substrate 0.6 mM, Tris HCl buffer with calcium and heparin, pH 7.4, 37° C., 5 minutes incubation; read-out: Tryptase-inhibiting activity
# Method: The compounds according to the invention are characterised by their tryptase-inhibiting activity. This ability to inhibit tryptase was investigated using the test described below.
# The measurement is carried out in Tris HCl buffer (100 mM), which additionally contains calcium (5 mM) and heparin ([…]), at pH 7.4. The standard used is rh beta tryptase which may be obtained commercially from Promega, for example. The substrate used is N-p-tosyl-Gly-Pro-Lys-para-nitroaniline in a concentration of 0.6 mM. The substrate is digested with tryptase to form p-nitroaniline which can be measured at 405 nm. Usually, an incubation period of 5 minutes and an incubation temperature of 37° C. are chosen. The enzyme activity used is 0.91 U/ml. The measurements are carried out in an Autoanalyser (Cobas Bio) made by Hofmann LaRoche. The potential inhibitory substances are used in concentrations of 10 μM in the screening, the inhibition of the tryptase being given in percent. The IC50 is determined at over 70% inhibition (concentration at which 50% of the enzyme activity is inhibited). After 5 minutes' pre-incubation of the potential inhibitory substances, the substrate is added to start the reaction, the formation of p-nitroaniline being taken as a measurement of the enzyme activity after 5 minutes, after testing the linearity.
# T1 sequence (Q15661 31-275): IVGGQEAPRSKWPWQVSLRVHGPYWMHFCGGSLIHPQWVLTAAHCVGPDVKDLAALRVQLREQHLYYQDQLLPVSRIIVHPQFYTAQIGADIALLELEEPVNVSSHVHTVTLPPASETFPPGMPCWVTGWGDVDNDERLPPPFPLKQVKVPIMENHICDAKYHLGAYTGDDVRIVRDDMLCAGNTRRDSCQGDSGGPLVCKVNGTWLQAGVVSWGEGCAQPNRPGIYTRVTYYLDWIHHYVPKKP
row,Structure (SMILES),pIC50
1,"CCOC(=O)CCN(C(=O)CN1CCC(Nc2ccccn2)CC1)c1ccc2c(c1)nc(CCc1ccc(C(=N)N)cc1)n2C [Example 53, N-{2-[2-(4-Amidinophenyl)-ethyl]-1-methyl-benzimidazol-5-yl}-N-[ethyl ethanecarboxylate]-2-[4-(2-pyridylamino)-piperid-1-yl]-acetamide, dihydrochloride]",7.52 to 8.40
2,"Cn1c(CCc2ccc(C(=N)N)cc2)nc2cc(NC(=O)N3CCC(Nc4ccccn4)CC3)ccc21 [Example 82, N-{2-[2-(4-Amidinophenyl)-ethyl]-1-methyl-benzimidazol-5-yl}-N′-[4-(2-pyridyl)-amino]-piperid-1-ine urea, hydrochloride]",6.00 to 7.51
3,"CCOC(=O)CCN(C)C1CCN(CC(=O)N(Cc2cccc3ccccc23)c2ccc3c(c2)nc(CCc2ccc(C(=N)N)cc2)n3C)CC1 [Example 21, N-{2-[2-(4-Amidinophenyl)-ethyl]-1-methyl-benzimidazol-5-yl}-N-[naphth-1-ylmethyl]-2-[4-(ethyl N-methyl-N-propionate)-piperid-1-yl]-acetamide, trihydrochloride]",7.52 to 8.40
4,"CN(C)c1ccc(CN(C(=O)CN2CCC(Nc3ccccn3)CC2)c2ccc3c(c2)nc(CCc2ccc(C(=N)N)cc2)n3C)c2ccccc12 [Example 51, N-{2-[2-(4-Amidinophenyl)-ethyl]-1-methyl-benzimidazol-5-yl}-N-[4-dimethylamino-naphth-1-ylmethyl]-2-[4-(2-pyridylamino)-piperid-1-yl]-acetamide, dihydrochloride]",7.52 to 8.40
5,"Cn1c(CCc2ccc(C(=N)N)cc2)nc2cc(N(Cc3cccc([N+](=O)[O-])c3)C(=O)CN3CCC(Nc4ccccn4)CC3)ccc21 [Example 50, N-{2-[2-(4-Amidinophenyl)-ethyl]-1-methyl-benzimidazol-5-yl}-N-[3-nitrophenylmethyl]-2-[4-(2-pyridylamino)-piperid-1-yl]-acetamide, dihydrochloride]",7.52 to 8.40
6,"CN(C)CCCN(C)C(=O)Nc1ccc2c(c1)nc(CCc1ccc(C(=N)N)cc1)n2C [Example 81, N-{2-[2-(4-Amidinophenyl)-ethyl]-1-methyl-benzimidazol-5-yl}-N′-methyl-N′-(3-dimethylaminopropyl)-urea, hydrochloride]",6.00 to 7.51
7,"Cn1c(CCc2ccc(C(=N)N)cc2)nc2cc(N(Cc3cccc4ccccc34)C(=O)CN3CCC(N)CC3)ccc21 [Example 15, N-{2-[2-(4-Amidinophenyl)-ethyl]-1-methyl-benzimidazol-5-yl}-N-[naphth-1-ylmethyl]-2-[4-amino-piperid-1-yl]-acetamide, trihydrochloride]",7.52 to 8.40
8,"Cn1c(CCc2ccc(C(=N)N)cc2)nc2cc(N(Cc3cccc4ccccc34)C(=O)CN3CCC(Cc4ccccc4)CC3)ccc21 [Example 9, N-{2-[2-(4-Amidinophenyl)-ethyl]-1-methyl-benzimidazol-5-yl}-N-[naphth-1-ylmethyl]-2-[4-(benzyl)-piperid-1-yl]-acetamide, dihydrochloride]",7.52 to 8.40
9,"CN(C)CCCN(C)C(=O)N(Cc1cccc2ccccc12)c1ccc2c(c1)nc(CCc1ccc(C(=N)N)cc1)n2C [Example 78, N-{2-[2-(4-Amidinophenyl)-ethyl]-1-methyl-benzimidazol-5-yl}-N-[naphth-1-ylmethyl]-N′-methyl-N′-(3-dimethylamino-propyl)-urea, hydrochloride]",6.00 to 7.51
10,"CN(C(=O)CN1CCC(Nc2ccc(Br)cc2Cl)CC1)c1ccc2c(c1)nc(CCc1ccc(C(=N)N)cc1)n2C [Example 62, N-{2-[2-(4-Amidinophenyl)-ethyl]-1-methyl-benzimidazol-5-yl}-N-methyl-2-[4-(2-chloro-4-bromoamino)-piperid-1-yl]-acetamide, dihydrochloride]",8.52 to 9.30
11,"Cn1c(CCc2ccc(C(=N)N)cc2)nc2cc(N(Cc3cccc4ccccc34)C(=O)CN3CCC(Nc4ccccn4)CC3)ccc21 [Example 6, N-{2-[2-(4-Amidinophenyl)-ethyl]-1-methyl-benzimidazol-5-yl}-N-[naphth-1-ylmethyl]-2-[4-(2-pyridylamino-piperid-1-yl]-acetamide, dihydrochloride]",8.52 to 9.30
12,"Cn1c(CCc2ccc(C(=N)N)cc2)nc2cc(N(Cc3cccc4ccccc34)C(=O)CN3CCC(Nc4ccc5ccccc5c4)CC3)ccc21 [Example 22, N-{2-[2-(4-Amidinophenyl)-ethyl]-1-methyl-benzimidazol-5-yl}-N-[naphth-1-ylmethyl]-2-[4-(2-naphthylamino)-piperid-1-yl]-acetamide, dihydrochloride]",8.52 to 9.30
13,"CN(C(=O)CN1CCC(Nc2ccccn2)CC1)c1ccc2c(c1)nc(CCc1ccc(C(=N)N)cc1)n2C [Example 28, N-{2-[2-(4-Amidinophenyl)-ethyl]-1-methyl-benzimidazol-5-yl}-N-methyl-2-[4-(2-pyridylamino)-piperid-1-yl]-acetamide, dihydrochloride]",7.52 to 8.40
14,"Cn1c(CCc2ccc(C(=N)N)cc2)nc2cc(N(Cc3cccc4ccccc34)C(=O)CN3CCC(Oc4ccccn4)CC3)ccc21 [Example 16, N-{2-[2-(4-Amidinophenyl)-ethyl]-1-methyl-benzimidazol-5-yl}-N-[naphth-1-ylmethyl]-2-[4-(2-pyridinoxy)-piperid-1-yl]-acetamide, dihydrochloride]",7.52 to 8.40
15,"Cn1c(CCc2ccc(C(=N)N)cc2)nc2cc(N(Cc3cccc4ccccc34)C(=O)Nc3cccc4ccccc34)ccc21 [Example 75, N-{2-[2-(4-Amidinophenyl)-ethyl]-1-methyl-benzimidazol-5-yl}-N-[naphth-1-ylmethyl]-N′-(1-naphthyl)-urea, hydrochloride]",7.52 to 8.40
16,"Cn1c(CCc2ccc(C(=N)N)cc2)nc2cc(N(Cc3cccc4ccccc34)C(=O)CN3CCC(Nc4ccc(OCc5ccccc5)cc4)CC3)ccc21 [Example 17, N-{2-[2-(4-Amidinophenyl)-ethyl]-1-methyl-benzimidazol-5-yl}-N-[naphth-1-ylmethyl]-2-[4-(4-benzyloxy-phenylamino)-piperid-1-yl]-acetamide, dihydrochloride]",7.52 to 8.40
17,"Cn1c(CCc2ccc(C(=N)N)cc2)nc2cc(N(Cc3cccc4ccccc34)C(=O)CN3CCC(Nc4ccc(O)cc4)CC3)ccc21 [Example 18, N-{2-[2-(4-Amidinophenyl)-ethyl]-1-methyl-benzimidazol-5-yl}-N-[naphth-1-ylmethyl]-2-[4-(4-hydroxyphenylamino)-piperid-1-yl]-acetamide, dihydrochloride]",7.52 to 8.40
18,"Cn1c(CCc2ccc(C(=N)N)cc2)nc2cc(N(Cc3cccc4ccccc34)C(=O)N3CCC(Nc4ccccn4)CC3)ccc21 [Example 79, N-{2-[2-(4-Amidinophenyl)-ethyl]-1-methyl-benzimidazol-5-yl}-N-[naphth-1-ylmethyl]-N′-[4-(2-pyridyl)-amino]-piperid-1-ine-urea, hydrochloride]",6.00 to 7.51
19,"Cc1ccc(NC2CCN(CC(=O)N(C)c3ccc4c(c3)nc(CCc3ccc(C(=N)N)cc3)n4C)CC2)c(Cl)c1 [Example 61, N-{2-[2-(4-Amidinophenyl)-ethyl]-1-methyl-benzimidazol-5-yl}-N-methyl-2-[4-(2-chloro-4-methylamino)-piperid-1-yl]-acetamide, dihydrochloride]",8.52 to 9.30

# — US6656956B2, “Benzimidazole derivatives, processes for preparing them and their use as pharmaceutical compositions” (Boehringer Ingelheim Pharma KG, priority 2001, dated 2003)
